Molecules are shown by their SMILES.

Assay type in all cases: biochemical
Test [1] addresses T1, Aurora-A (Homo sapiens, UniProt O14965).
T1 construct: purchased Upstate; host or cells: Sf21 insect cells
T1 sequence (O14965 1-403): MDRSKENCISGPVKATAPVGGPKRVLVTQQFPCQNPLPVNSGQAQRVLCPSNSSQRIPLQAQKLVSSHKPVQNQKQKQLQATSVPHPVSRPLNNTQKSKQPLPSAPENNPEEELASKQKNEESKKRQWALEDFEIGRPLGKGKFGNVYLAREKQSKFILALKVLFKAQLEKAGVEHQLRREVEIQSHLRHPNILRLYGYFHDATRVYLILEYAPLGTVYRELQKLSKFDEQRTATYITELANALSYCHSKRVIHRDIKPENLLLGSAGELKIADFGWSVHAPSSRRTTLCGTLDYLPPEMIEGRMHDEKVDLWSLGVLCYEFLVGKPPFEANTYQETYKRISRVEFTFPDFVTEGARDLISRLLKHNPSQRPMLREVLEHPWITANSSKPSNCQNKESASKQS
Description: Aurora-A kinase assay. Conditions: 8 μM ATP, 22° C., 90 min. As for the experimental part:
Recombinant Aurora-A protein, expressed in Sf21 insect cells, was purchased from Upstate. The kinase substrate used was the biotinylated peptide having the amino acid sequence biotin-LNYNRRLSLGPMF, which was purchased from Jerini A G in Berlin.
Aurora-A [15 nM in the test mixture, test volume 5 μl] was incubated in the presence of various concentrations of test substances (0 μM and 10 measurement points within the range 0.001-20 μM in duplicate) in assay buffer [25 mM HEPES pH 7.4, 3 mM MnCl2, 5 mM MnCl2, 0.1 mM Na ortho-vanadate, 2.0 mM dithiothreitol, 0.05% bovine serum albumin (BSA), 0.01% Triton X-100, 8 μM ATP, 4 nCi/μl gama-P33-ATP, 5.0 μM substrate peptide biotin-LNYNRRLSLGPMF, 1.0% dimethyl sulphoxide] at 22° C. for 90 min. The reaction was stopped by adding 12.5 μl of an EDTA/detection solution [16 mM EDTA, 40 mM ATP, 0.08% Triton X-100, 4 mg/ml PVT streptavidin SPA beads (from Amersham)]. After incubation for 10 minutes, the SPA beads were pelleted by centrifugation at 1000×G for 10 minutes. Measurement took place in a PerkinElmer Topcount scintillation counter.
The measured data were normalized to 0% inhibition (enzyme reaction without inhibitor) and 100% inhibition (enzyme reaction in the presence of 0.1 μM staurosporine (from Sigma)). The IC50 values were determined by means of a 4-parameter fit using the company's own software.

Test [2] has as its target T2, Chk1 (Homo sapiens, UniProt O14757).
T2 construct: made in house; host or cells: Sf9 insect cells
T2 sequence (O14757 1-476): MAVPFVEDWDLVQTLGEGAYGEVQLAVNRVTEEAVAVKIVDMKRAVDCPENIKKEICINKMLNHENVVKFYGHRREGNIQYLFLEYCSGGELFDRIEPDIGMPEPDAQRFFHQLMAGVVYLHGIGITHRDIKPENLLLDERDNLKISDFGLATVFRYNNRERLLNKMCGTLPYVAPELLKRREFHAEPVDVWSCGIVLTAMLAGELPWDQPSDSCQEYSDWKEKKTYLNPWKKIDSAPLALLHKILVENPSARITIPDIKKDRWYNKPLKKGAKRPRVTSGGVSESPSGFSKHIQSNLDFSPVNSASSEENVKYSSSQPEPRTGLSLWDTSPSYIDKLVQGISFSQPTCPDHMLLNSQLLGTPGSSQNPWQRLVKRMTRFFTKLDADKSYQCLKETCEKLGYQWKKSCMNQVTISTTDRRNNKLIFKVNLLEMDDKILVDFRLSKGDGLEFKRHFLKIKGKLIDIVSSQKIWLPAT
Briefly: Chk1 kinase assay. Conditions: 10 μM ATP, 22° C., 60 min. As for the experimental part:
Recombinant Chk1 protein was expressed in Sf9 insect cells and then purified. The kinase substrate used was the biotinylated peptide having the amino acid sequence biotin-ALKLVRTPSFVITAK, which was purchased from Biosynthan GmbH in Berlin.
Chk1 [0.11 μg/ml in the test mixture, test volume 5 μl] was incubated in the presence of various concentrations of test substances (0 μM, and 10 measurement points within the range 0.001-20 μM in duplicate) in assay buffer [50 mM HEPES pH 7.5, 10 mM MgCl2, […], 0.1 mM Na ortho-vanadate, 1.0 mM dithiothreitol, 1 tablet/2.5 ml complete protease inhibitor (from Roche), 10 μM ATP, 1.0 μM substrate peptide biotin-ALKLVRTPSFVITAK, 1.0% dimethyl sulphoxide] at 22° C. for 60 min. The reaction was stopped by adding 5 μl of an EDTA/detection solution [100 mM EDTA, 800 mM potassium fluoride, 0.2% BSA, 0.2 μM streptavidin-XLent (from CisBio), 9.6 nM anti-phospho-Akt antibody (from Cell Signalling Technology), 4 nM protein-A-Eu(K) (from CisBio)]. The fluorescence emission at 620 nm and 665 nm after excitation with light of the wavelength 350 nm was measured in a Rubystar HTRF instrument from BMG Labsystems.
The measured data (ratio of emission 665 divided by emission 620 multiplied by 10 000) were normalized to 0% inhibition (enzyme reaction without inhibitor) and 100% inhibition (all assay components apart from enzyme). The IC50 values were determined by means of a 4-parameter fit using the company's own software.

For test [3], the target named is T3, c-kit (Homo sapiens, UniProt P10721).
T3 construct: made in house; host or cells: E. coli
Briefly: c-Kit kinase assay. Conditions: 10 μM ATP, 22° C., 30 min. How it is done:
Recombinant c-kit protein was expressed in E. coli and then purified. The kinase substrate used was the biotinylated peptide having the amino acid sequence biotin-poly GluTyr, which was purchased from CisBio.
C-kit [test volume 5 μl] was incubated in the presence of various concentrations of test substances (0 μM, and 10 measurement points within the range 0.001-20 μM in duplicate) in assay buffer [50 mM HEPES pH 7.0, 1.0 mM MgCl2, […], 0.1 mM Na ortho-vanadate, 1.0 mM dithiothreitol, 0.001% NP40, 10 μM ATP, 0.03 μM substrate peptide biotin-poly GluTyr, 1.0% dimethyl sulphoxide] at 22° C. for 30 min. The reaction was stopped by adding 5 μl of an EDTA/detection solution [50 mM HEPES pH 7.5, 80 mM EDTA, 0.2% BSA, 0.1 μM streptavidin-XLent (from CisBio), 1 nM PT66-Eu (from PerkinElmer)]. The fluorescence emission at 620 nm and 665 nm after excitation with light of the wavelength 350 nm was measured in a Rubystar HTRF instrument from BMG Labsystems. The measured data (ratio of emission 665 divided by emission 620 multiplied by 10 000) were normalized to 0% inhibition (enzyme reaction without inhibitor) and 100% inhibition (all assay components apart from enzyme). The IC50 values were determined by means of a 4-parameter fit using the company's own software.

T3 sequence (P10721 26-976): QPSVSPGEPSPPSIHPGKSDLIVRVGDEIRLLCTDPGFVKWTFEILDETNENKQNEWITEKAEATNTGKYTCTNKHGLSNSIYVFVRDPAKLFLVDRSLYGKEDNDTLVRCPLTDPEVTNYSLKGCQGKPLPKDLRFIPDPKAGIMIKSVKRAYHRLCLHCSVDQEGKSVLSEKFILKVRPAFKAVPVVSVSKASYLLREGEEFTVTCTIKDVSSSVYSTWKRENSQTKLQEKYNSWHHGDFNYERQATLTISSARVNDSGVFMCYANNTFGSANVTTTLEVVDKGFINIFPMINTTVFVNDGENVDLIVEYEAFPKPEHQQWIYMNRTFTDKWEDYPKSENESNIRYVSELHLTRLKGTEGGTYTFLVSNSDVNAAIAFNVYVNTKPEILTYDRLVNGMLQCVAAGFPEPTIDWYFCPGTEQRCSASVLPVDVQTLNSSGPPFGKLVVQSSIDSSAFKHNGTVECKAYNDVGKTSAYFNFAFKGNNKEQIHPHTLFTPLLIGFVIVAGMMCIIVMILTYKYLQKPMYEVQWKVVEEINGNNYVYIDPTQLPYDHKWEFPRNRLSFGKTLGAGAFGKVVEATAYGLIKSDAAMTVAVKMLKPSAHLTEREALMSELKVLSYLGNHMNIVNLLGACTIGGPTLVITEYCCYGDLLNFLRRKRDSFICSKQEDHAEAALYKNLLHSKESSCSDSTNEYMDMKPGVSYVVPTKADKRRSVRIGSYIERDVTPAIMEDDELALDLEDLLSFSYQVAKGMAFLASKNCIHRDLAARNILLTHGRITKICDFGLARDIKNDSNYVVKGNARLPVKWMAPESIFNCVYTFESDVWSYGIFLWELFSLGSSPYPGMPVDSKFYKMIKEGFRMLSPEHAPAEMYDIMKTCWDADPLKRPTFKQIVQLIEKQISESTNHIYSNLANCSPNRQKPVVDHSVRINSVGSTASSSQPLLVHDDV

Take `CCOC(=O)N=S(C)(=O)c1ccc2cc1NCCCCNc1nc(ncc1Br)N2` (racemic) [Example 1, (RS)—S-[1^5-Bromo-2,4,9-triaza-1(2,4)-pyrimidina-3(1,3)-benzenacyclononaphan-3^4-yl]-N-(ethoxycarbonyl)-S-methylsulphoximide]: the values for the IC50 in test [1], in test [2] and in test [3] were 27 nM, 4640 nM and 29 nM, respectively.

With `CCOC(=O)N=S(C)(=O)c1ccc2cc1NCCCCNc1nc(ncc1I)N2` (racemic) [Example 4, (RS)—N-(Ethoxycarbonyl)-S-[1^5-iodo-2,4,9-triaza-1(2,4)-pyrimidina-3(1,3)-benzenacyclononaphan-3^4-yl]-S-methylsulphoximide], the figures for the IC50 in test [1], in test [2] and in test [3] were 31 nM, 1850 nM and 23 nM, respectively.

With `C[Si](C)(C)CCS(=O)(=O)N=S(C)(=O)c1ccc2cc1NCCCCNc1nc(ncc1Br)N2` (racemic) [Example 5, (RS)—S-[1^5-Bromo-2,4,9-triaza-1(2,4)-pyrimidina-3(1,3)-benzenacyclononaphan-3^4-yl]-S-methyl-N-[2-(trimethylsilyl)ethylsulphonyl]sulphoximide], the IC50 in test [1] is 844 nM; in test [2], above 20000 nM; in test [3] it was 164 nM.

Take `CCNC(=O)N=S(C)(=O)c1ccc2cc1NCCCCNc1nc(ncc1Br)N2` (racemic) [Example 6, (RS)—S-[1^5-Bromo-2,4,9-triaza-1(2,4)-pyrimidina-3(1,3)-benzenacyclononaphan-3^4-yl]-N-(ethylcarbamoyl)-S-methylsulphoximide]: the IC50 in test [1] was determined as 21 nM; in test [2] it was 3770 nM; in test [3], 14 nM.

`CCCS(=O)(=O)N=S(C)(=O)c1ccc2cc1NCCCCNc1nc(ncc1Br)N2` (racemic) [Example 7, (RS)—S-[1^5-Bromo-2,4,9-triaza-1(2,4)-pyrimidina-3(1,3)-benzenacyclononaphan-3^4-yl]-S-methyl-N-(propylsulphonyl)sulphoximide]: the IC50 is 44 nM in test [1], above 20000 nM in test [2] and 17 nM in test [3].

`CCCOC(=O)N=S(C)(=O)c1ccc2cc1OCCCCNc1nc(ncc1Br)N2` (racemic) [Example 8, (RS)—S-[1^5-Bromo-4-oxa-2,9-diaza-1(2,4)-pyrimidina-3(1,3)-benzenacyclononaphan-3^4-yl]-S-methyl-N-(propoxycarbonyl)sulphoximide]: the values for the IC50 in test [2] and in test [3] were above 20000 nM and 357 nM, respectively.

For `C[Si](C)(C)CCS(=O)(=O)N=S(C)(=O)c1ccc2cc1OCCCCNc1nc(ncc1Br)N2` (racemic) [Example 9, (RS)—S-[1^5-Bromo-4-oxa-2,9-diaza-1(2,4)-pyrimidina-3(1,3)-benzenacyclononaphan-3^4-yl]-S-methyl-N-[2-(trimethylsilyl)ethylsulphonyl]sulphoximide], the IC50 in test [1] was 652 nM; in test [2], above 12500 nM; in test [3] it was above 12500 nM.

Consider `CCOC(=O)N=S(C)(=O)c1ccc2cc1NCCCCNc1nc(ncc1Br)N2` (single isomer, unassigned) [Example 2], for which the IC50 was 26 nM in test [1], 3630 nM in test [2] and 46 nM in test [3].

Take `CCOC(=O)N=S(C)(=O)c1ccc2cc1NCCCCNc1nc(ncc1Br)N2` (single isomer, unassigned) [Example 3]: the IC50 in test [1] turned out to be 77 nM; in test [2], 6840 nM; in test [3], 64 nM.

These data come from US20070191393A1, “Macrocyclic anilinopyrimidines with substituted sulphoximine as selective inhibitors of cell cycle kinases” (priority 2006, published 2007).
